In patent US8648208B2, “Activating agent for peroxisome proliferator activated receptor” (Nippon Chemiphar Co. Ltd., priority 2008, dated 2014):
Like-named read-outs stand apart in the source and are kept apart here.

How the values were obtained:
Assay type in all cases: cell-based
hPPARγ (LBD) = molecular target: T1, hPPARγ (LBD) (Homo sapiens, UniProt P37231); experiment: PPAR activating effect, GAL4-hPPARγ LBD luciferase reporter transfection in CV-1 cells; conditions: for EC50: Table 25, method of Example 29, read-out: PPAR activity (EC50) γ
T1 construct: A receptor expression plasmid (pSG5-GAL4-hPPARα or γ or δ (LBD)); GAL4 (fusion partner); expressed in transfected cells; host or cells: CV-1 cells (ATCC)
T1 sequence (P37231 238-503 limits assumed): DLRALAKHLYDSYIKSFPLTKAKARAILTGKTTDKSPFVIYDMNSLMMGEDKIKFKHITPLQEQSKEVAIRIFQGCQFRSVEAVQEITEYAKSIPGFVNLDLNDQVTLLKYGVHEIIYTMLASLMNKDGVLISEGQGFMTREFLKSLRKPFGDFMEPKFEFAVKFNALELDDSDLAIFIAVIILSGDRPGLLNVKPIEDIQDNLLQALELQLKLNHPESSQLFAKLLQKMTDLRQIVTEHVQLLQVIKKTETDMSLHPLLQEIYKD

hPPARα (LBD) = molecular target: T2, hPPARα (LBD) (Homo sapiens, UniProt Q07869); experiment: PPAR activating effect, GAL4-hPPARα LBD luciferase reporter transfection in CV-1 cells; conditions: for PPAR activity α (relative value to control compound): 100% = GW-590735 10^-6 M; for EC50: Table 25, method of Example 29, read-out: PPAR activity (EC50) α
T2 construct: A receptor expression plasmid (pSG5-GAL4-hPPARα or γ or δ (LBD)); GAL4 (fusion partner); expressed in transfected cells; host or cells: CV-1 cells (ATCC)
T2 sequence (Q07869 239-466 limits assumed): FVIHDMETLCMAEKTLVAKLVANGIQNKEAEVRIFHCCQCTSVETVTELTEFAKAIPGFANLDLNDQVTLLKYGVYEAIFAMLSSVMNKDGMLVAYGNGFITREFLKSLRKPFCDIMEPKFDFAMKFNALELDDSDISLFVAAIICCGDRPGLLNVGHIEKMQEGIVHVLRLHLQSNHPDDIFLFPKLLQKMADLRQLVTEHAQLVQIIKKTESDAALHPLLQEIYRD

hPPARδ (LBD) = molecular target: T3, hPPARδ (LBD) (Homo sapiens, UniProt Q03181); experiment: PPAR activating effect, GAL4-hPPARδ LBD luciferase reporter transfection in CV-1 cells; design: activation: dose or concentration left out as unconfirmed; conditions: for EC50: Table 25, method of Example 29, read-out: PPAR activity (EC50) δ; for selectivity of PPAR δ-activating effect: compared with GW-501516, from EC50 α, γ, δ of Table 25
T3 construct: A receptor expression plasmid (pSG5-GAL4-hPPARα or γ or δ (LBD)); GAL4 (fusion partner); expressed in transfected cells; host or cells: CV-1 cells (ATCC)
T3 sequence (Q03181 211-439 limits assumed): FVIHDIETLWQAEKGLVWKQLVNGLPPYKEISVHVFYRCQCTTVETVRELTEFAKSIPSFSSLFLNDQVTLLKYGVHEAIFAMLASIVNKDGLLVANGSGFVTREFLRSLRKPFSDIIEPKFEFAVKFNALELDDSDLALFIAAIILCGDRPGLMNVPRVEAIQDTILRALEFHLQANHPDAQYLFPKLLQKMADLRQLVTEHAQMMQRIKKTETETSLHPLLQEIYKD

[1] = Table 26, test compound 10^-7 M, 100% = Rosiglitazone 10^-5 M
[2] = Table 26, test compound 10^-7 M
[3] = Table 24, 100% = Rosiglitazone 10^-5 M, CV-1 cells, approx. 40 h
[4] = CV-1, 40 h, read-out: PPAR activity δ (relative value to control compound)
[5] = Table 24, CV-1 cells, approx. 40 h

| Molecule | PPAR activity γ (relative value to control compound) (hPPARγ (LBD); [3]) | activation (hPPARδ (LBD); [4]) [%] | PPAR activity α (relative value to control compound) (hPPARα (LBD); [5]) | further results |
| --- | --- | --- | --- | --- |
| 2-[3-[2-[3-Isopropyl-6-(trifluoromethyl)benzothiophen-2-yl]ethyl]benzisoxazol-6-yloxy]propionic acid [Example 27] |  |  |  | PPAR activity γ (relative value to control compound) (hPPARγ (LBD); [1]): Inactive; PPAR activity α (relative value to control compound) (hPPARα (LBD); [2]): Inactive |
| Cc1cc(C(=O)CCc2sc3ccc(C(F)(F)F)cc3c2C)ccc1OCC(=O)O [Example 3, 2-Methyl-4-[3-[3-methyl-5-(trifluoromethyl)-benzothiophen-2-yl]propionyl]phenoxyacetic acid] | Inactive | 4.4 | Inactive |  |
| Cc1cc(C(=O)CCc2sc3ccc(C(F)(F)F)cc3c2C)ccc1OC(C)(C)C(=O)O [Example 4, 2-Methyl-2-[2-methyl-4-[3-[3-methyl-5-(trifluoromethyl)-benzothiophen-2-yl]propionyl]phenoxy]propionic acid] | 9.0% | 19.2 |  |  |
| Cc1cc(C(=O)CCc2sc3cc(C(F)(F)F)ccc3c2C)ccc1OCC(=O)O [Example 5, 2-Methyl-4-[3-[3-methyl-6-(trifluoromethyl)-benzothiophen-2-yl]propionyl]phenoxyacetic acid] | Inactive | 23 | Inactive |  |
| Cc1cc(C(=O)CCc2sc3cc(C(F)(F)F)ccc3c2C)ccc1OC(C)(C)C(=O)O [Example 6] |  |  | Inactive | PPAR activity γ (relative value to control compound) (hPPARγ (LBD)): Inactive; PPAR activity δ (relative value to control compound) (hPPARδ (LBD); Table 24, 100% = GW-501516 10^-7 M, CV-1 cells, approx. 40 h): 40.8% |
| Cc1cc(C(=O)CCc2sc3cc(C(F)(F)F)ccc3c2C)ccc1CCC(=O)O [Example 7, 3-[4-[3-[3-Methyl-6-(trifluoromethyl)-benzothiophen-2-yl]propionyl]-2-methylphenyl]propionic acid] | Inactive | 51.4 | Inactive |  |
| CCc1c(CCC(=O)c2ccc(CCC(=O)O)c(C)c2)sc2cc(C(F)(F)F)ccc12 [Example 8, 3-[4-[3-[3-Ethyl-6-(trifluoromethyl)benzothiophen-2-yl]propionyl]-2-methylphenyl]propionic acid] | Inactive | 81 | Inactive |  |
| CCCc1c(CCC(=O)c2ccc(CCC(=O)O)c(C)c2)sc2cc(C(F)(F)F)ccc12 [Example 9, 3-[2-Methyl-4-[3-[3-propyl-6-(trifluoromethyl)benzothiophen-2-yl]propionyl]phenyl]propionic acid] | 1.3% | 83.5 | Inactive |  |
| CCCc1c(CCC(=O)c2cc(C)c(OCC(=O)O)cc2O)sc2cc(C(F)(F)F)ccc12 [Example 22] |  |  |  | PPAR activity γ (relative value to control compound) (hPPARγ (LBD)): Inactive; PPAR activity α (relative value to control compound) (hPPARα (LBD); [2]): Inactive |
| CCCc1c(CCC(=NO)c2cc(C)c(OCC(=O)O)cc2O)sc2cc(C(F)(F)F)ccc12 [Example 23, 5-Hydroxy-4-[1-hydroxyimino-3-[3-propyl-6-(trifluoromethyl)benzothiophen-2-yl]propyl]-2-methyl-phenoxyacetic acid] |  |  |  | PPAR activity γ (relative value to control compound) (hPPARγ (LBD); [1]): Inactive; activation at 0.1 µM (hPPARδ (LBD); [4]): 5.1%; PPAR activity α (relative value to control compound) (hPPARα (LBD); [2]): Inactive |

Second part, led by results:

| PPAR activity γ (relative value to control compound) (hPPARγ (LBD); [3]) | activation (hPPARδ (LBD); [4]) [%] | PPAR activity α (relative value to control compound) (hPPARα (LBD); [5]) | Molecule | further results |
| --- | --- | --- | --- | --- |
| 2.2% | 66.1 | Inactive | CCCCc1c(CCC(=O)c2ccc(CCC(=O)O)c(C)c2)sc2cc(C(F)(F)F)ccc12 [Example 10, 3-[2-Methyl-4-[3-[3-butyl-6-(trifluoromethyl)benzothiophen-2-yl]propionyl]phenyl]propionic acid] |  |
| Inactive | 60.9 | Inactive | Cc1cc(C(=O)CCc2sc3cc(C(F)(F)F)ccc3c2CC(C)C)ccc1CCC(=O)O [Example 11, 3-[2-Methyl-4-[3-[3-isobutyl-6-(trifluoromethyl)benzothiophen-2-yl]propionyl]phenyl]propionic acid] |  |
| Inactive | 87.3 | Inactive | Cc1cc(C(=O)CCc2sc3cc(C(F)(F)F)ccc3c2C(C)C)ccc1CCC(=O)O [Example 12, 3-[2-methyl-4-[3-[3-isopropyl-6-(trifluoromethyl)benzothiophen-2-yl]propionyl]phenyl]propionic acid] |  |
| Inactive | 90.4 | Inactive | Cc1cc(C(CCc2sc3cc(C(F)(F)F)ccc3c2C(C)C)=NO)ccc1CCC(=O)O [Example 13, 3-[4-[1-Hydroxyimino-3-[3-isopropyl-6-(trifluoromethyl)-benzothiophen-2-yl]propyl]-2-methylphenyl]propionic acid] |  |
| Inactive | 73 | Inactive | C=C(CCc1sc2cc(C(F)(F)F)ccc2c1C(C)C)c1ccc(CCC(=O)O)c(C)c1 [Example 14, 3-[4-[1-[2-[3-Isopropyl-6-(trifluoromethyl)-benzothiophen-2-yl]ethyl]vinyl]-2-methylphenyl]propionic acid] |  |
| Inactive | 77.4 | Inactive | Cc1cc(C(=O)CCc2sc3cc(C(F)(F)F)ccc3c2C(C)C)ccc1OCC(=O)O [Example 15, 4-[3-[3-Isopropyl-6-(trifluoromethyl)benzothiophen-2-yl]-propionyl]-2-methylphenoxyacetic acid] |  |
| Inactive | 51.7 | Inactive | Cc1cc(C(CCc2sc3cc(C(F)(F)F)ccc3c2C(C)C)=NO)ccc1OCC(=O)O [Example 16, 4-[1-Hydroxyimino-3-[3-isopropyl-6-(trifluoromethyl)-benzothiophen-2-yl]propyl]-2-methyl-phenoxyacetic acid] |  |
| Inactive | 45.9 | Inactive | CON=C(CCc1sc2cc(C(F)(F)F)ccc2c1C(C)C)c1ccc(OCC(=O)O)c(C)c1 [Example 17, 4-[3-[3-Isopropyl-6-(trifluoromethyl)benzothiophen-2-yl]-1-methoxyiminopropyl]-2-methylphenoxyacetic acid] |  |
| Inactive | 91.7 | Inactive | Cc1cc2c(CCc3sc4cc(C(F)(F)F)ccc4c3C(C)C)noc2cc1OCC(=O)O [Example 19, [3-[2-[3-Isopropyl-6-(trifluoromethyl)benzothiophen-2-yl]-ethyl]-5-methyl-benzisoxazol-6-yloxy]acetic acid] | EC50 (hPPARγ (LBD); CV-1 cells): > 10 µM; EC50 (hPPARδ (LBD); CV-1 cells): 4.8 nM; selectivity of PPAR δ-activating effect (hPPARδ (LBD)): superior to that of the GW-501516; EC50 (hPPARα (LBD); CV-1 cells): > 10 µM |
| Inactive | 88 |  | Cc1cc2c(CCc3sc4cc(C(F)(F)F)ccc4c3C(C)C)noc2cc1N(C)CC(=O)O [Example 20, N-[3-[2-[3-Isopropyl-6-(trifluoromethyl)benzothiophen-2-yl]ethyl]-5-methylbenzisoxazol-6-yl]-N-methylglycine] |  |
| Inactive | 94.2 | Inactive | Cc1cc2c(CCc3sc4cc(C(F)(F)F)ccc4c3C(C)C)noc2cc1CCC(=O)O [Example 21, 3-[3-[2-[3-Isopropyl-6-(trifluoromethyl)benzothiophen-2-yl]-ethyl]-5-methylbenzisoxazol-6-yl]propionic acid] | EC50 (hPPARγ (LBD); CV-1 cells): > 10 µM; EC50 (hPPARδ (LBD); CV-1 cells): 1.3 nM; selectivity of PPAR δ-activating effect (hPPARδ (LBD)): superior to that of the GW-501516; EC50 (hPPARα (LBD); CV-1 cells): > 10 µM |
